The values below come from US20130281313A1, “PROGNOSTIC AND/OR PREDICTIVE BIOMARKERS AND BIOLOGICAL APPLICATIONS THEREOF” (INSTITUT GUSTAVE ROUSSY, priority 2010, published 2013).

This assay concerns murine Lewis lung carcinoma (LLC) cells in immunocompetent C57BL/6 mice. As to the kind of experiment: Tumor graft model: LLC cells in C57BL/6 mice. Type of assay: in vivo, mouse. Particulars: intraperitoneal CDDP with systemic injections of PN. The protocol: C57BL/6 (H-2b) and Swiss Nude mice were obtained from Janvier (Le Genest St. Isle, France) and Charles River, respectively. Animals were maintained in pathogen-free conditions, and all experiments were carried out (upon approval by the local ethical committee) according to the Federation of European Laboratory Animal Science Association (FELASA) guidelines. Mice were used between 6 and 12 weeks of age. During the experiments, animals were subjected to artificial light cycle (12 h lights on-12 h lights off) and allowed food and drink ad libitum.
5×10^5 LLC and A549 cells were subcutaneously xenografted (in 100 μL sterile PBS) in 25-30 immunocompetent (C57BL/6) and immunodeficient (Swiss Nude) mice, respectively. When the surface of tumors reached 25-40 mm^2, n=4-6 mice were assigned to either of 4 different treatment groups: group 1=100 μL intraperitoneal PBS; group 2=5 mg/kg intraperitoneal CDDP in 100 μL PBS; group 3=240 mg/Kg intraperitoneal Orlistat® in 40 μL PBS; group 4=5 mg/kg intraperitoneal CDDP in 100 μL PBS+intraperitoneal Orlistat® in 40 μL PBS. Treatments were administered three times a week (day 1, 3 and 5; day 8=day 1). Tumor size was monitored on the day of treatment by means of a standard calliper and tumor volume was extrapolated as previously described {Streit, 1999}. […] Statistical significance was evaluated by two-way ANOVA.

`Cc1ncc(CO)c(CO)c1O` [PN, pyridoxine]: the “antitumor effects of CDDP-based chemotherapy (tumor growth)” value is “augmented the antitumor effects of CDDP-based chemotherapy in vivo”.
